Reference: US5157052A, “Method for inhibiting IgE production” (priority 1990, dated 1992)

Experiments:
[1] = test system: leukocyte membrane proteins; assay: Cell surface density or distribution of leukocyte membrane proteins, overall; format: in vivo, mouse (Balb/c female); details: unstimulated mice, 20 μg
IgM = assay: Serum IgM in anti-IgD stimulated mice (two site sandwich ELISA, Assay E); format: in vivo, mouse (Balb/c female); details: 20 μg IP 3x daily days 3 and 4
Description: (§1) Sera from mice treated with compounds in accordance with the method of the invention are analyzed for levels of IgG1, IgG2a, IgG3, and IgM.
Measurement of mouse IgM by a two site sandwich ELISA is performed in substantial accordance with the teachings of Assay B except for the following changes. About 250 ng of rabbit anti-mouse IgM (Zymed Laboratories) is used to coat a NuncImmulon 96 well plate. The IgM standard is purchased from Southern Biotech. The standard curve is linear between 8-500 ng/ml. Serum containing IgM is diluted 1/4,000 to 1/60,000. About a 1/10,000 dilution of goat anti mouse IgM conjugated to horse radish peroxidase is used as a combined primary antibody and developing reagent. 100 μl is added to each well and the plate is incubated at about 4° C. overnight. The colorimetric substrate is prepared and used as described in Assay A.
Two groups of 4 Balb/c female mice per group are injected with both 100 μg FF1-4D5 antibody and 100 μg H∂Al antibody. On day 3 and 4 the mice are injected with PBS (Group A) or 20 μg (±) methyl 11α,16-dihydroxy-16-ethyl-9-oxoprosta-5Z,13E-dien-1-oate (Group B) at 7 a.m., 1 p.m. and 7 p.m. in substantial accordance with the teaching of Example 13. On day -1, 7, 8, 9 and 11, 50-100 μl of serum is recovered and analyzed for IgE by Assay A and for IgM by Assay E. The results are shown in Table 6.
(§2) Three groups of 5 Balb/c female mice per group are injected with both 100 μg FF1-4D5 antibody and 100 μg H∂A1 antibody on day 0. Group A is a control with no further treatment. On day 3 and 4, the mice are injected with 20 μg (±) methyl 11α,16-dihydroxy-4,4,16-trimethyl-9-oxoprosta-13E-en-1-oate (Group B) or 20 μg (±) methyl 11α,16-dihydroxy-16-methyl-9-oxoprosta-3,5Z,13E-trien-1-oate (Group C) as in Example 13. On day -1 and 8, […] of serum is recovered and analyzed for IgE, IgG1, IgG2a, IgG3 and IgM by Assays A, B, C, D and E, respectively.

IgE [2] = assay: Serum IgE response induced by FF1-4D5 + H∂A1 anti-IgD antibodies (ELISA, Assay A / Assay F); format: in vivo, mouse (Balb/c female)
Description: Mouse hybridoma cells expressing either FF1-4D5 antibody or H∂A1 antibody are thawed, established in culture, and incubated in mice as ascite tumors. FF1-4D5 antibody is a mouse IgG2a monoclonal antibody of the b allotype that binds the Fd fragment of the ∂ chain of the a allotype IgD which activates β cells through antigen internalization and processing, promoting cognate interactions with antigen-specific T cells (D. K. Goroff et al., J. Immunol. 136: 2382 (1986)). H∂A1 antibody is a mouse IgG2b of the b allotype that binds the Fc fragment of the ∂ chain of the a allotype IgD which activates β cells through crosslinking IgD (I. M. Zitron and B. L. Clevinger, J. Exp. Med. 152: 1135 (1980)). Each antibody is purified from their respective ascites tumor fluid. […] Serum from the injected mice is recovered and the mean concentration of IgE determined.
Serum levels of IgE are determined and IgE levels are shown to be inhibited in a dose dependent manner.
ELISA (enzyme linked immunosorbant assay) measurements of IgE are as follows. About 5 μg of B1E3 antibody in 100 μl borate buffered saline (pH8.5) is added to wells of a NuncImmulon II 96 well plate (DiRuscio & Assoc., St. Louis, Mo.) at 37° C. for 90 minutes. The non-bound antibody is removed by flicking the plate. Unreacted sites on the plastic plate are blocked by adding about 200 μl of a 2% solution of newborn bovine serum (NBS) in PBS at 37° C. for 60 minutes. The standard IgE (or an unknown murine serum sample) is diluted to between about 4 ng/ml-256 ng/ml in Hanks-HS (20 mM Hepes, 2% NBS in Hanks Balanced Salt Solution, Gibco, Grand Island, N.Y.) or to 1/200 to 1/1000 in Hanks-HS respectively. 100 μl of standard (or unknown dilutions) are added in triplicate to the wells of the plate and allowed to absorb to B1E3 antibody at about 37° C. for 2-4 hours. The solution is removed by flicking the plate and each well is washed with about 0.5 ml 0.05% Tween 20-PBS 5 times. About 100 μl of biotinylated R1E4, called the primary antibody, diluted to 200 ng/ml is added to all wells and incubated at about 4° C. overnight. The solution is removed by flicking the plate and washed 5 times as described above. The developing reagent (Avidin and biotin-horse radish peroxidase) is incubated in 2% NBS in PBS at ambient temperature for 30 minutes, according to manufacturer's specifications (Vector Laboratories, Burlingame, Calif.). About 100 μl of developing reagent is added to each well and incubated at ambient temperature for 30 minutes. Colorimetric substrate for the developing reagent (ABTS peroxidase substrate system, KPL, Gaithersburg, Md.) is prepared by mixing equal volumes of solutions A and B and incubating at ambient temperature for 60 minutes. The developing reagent solution is removed by flicking the plate and washed 5 times as described above. About 100 μl of the mixture of substrates is added to each well and incubated at ambient temperature for 60 minutes. The optical density of each well is determined on a BioTek ELISA reader (Biotek Instruments, Inc., Burlington, Vermont) and the absorbance data transferred electronically to a DEC VAX mainframe computer. A standard curve is fitted to the IgE standard optical densities using straight line, linear regression statistical fits. IgE in the unknown serum samples is determined by comparing the optical density of the unknown to the standard curve and multiplying that number by the dilution of serum used in the assay.
Stimulation of a transient serum IgE response in mouse with two monoclonal antibodies directed against IgD is carried out as follows.
Mouse hybridoma cells expressing either FF1-4D5 antibody or H∂Al antibody are thawed, established in culture, and incubated in CB6 F1 female mice as an ascites tumor and each immunoglobulin is purified from the ascites fluid as described above. […]

IgE [3] = assay: In vitro IgE inhibition; format: cell-based
IgG1 = assay: Serum IgG1 in anti-IgD stimulated mice (two site sandwich ELISA, Assay B); format: in vivo, mouse (Balb/c female); details: 40 μg days 3 and 4; for IgG1 ± SD: Table 11
IgG2a = assay: Serum IgG2a in anti-IgD stimulated mice (two site sandwich ELISA, Assay C); format: in vivo, mouse (Balb/c female); details: 40 μg days 3 and 4; for IgG2a ± SD: Table 11
Description: as §1
Measurement of mouse IgG2a by a two site sandwich ELISA is performed in substantial accordance with the teaching of Assay B except with the following changes. NuncImmulon II plates are used in this assay. The IgG2a standard is purchased from Southern Biotech. The standard curve is linear between 4-250 ng/ml. Serum containing IgG2a is diluted 1/6400 to 1/1,000,000. About a 1/6,000 dilution of goat anti mouse IgG2a (Southern Biotech) conjugated to alkaline phosphatase is used.
Sera from the mice described in Example 13 are analyzed for the levels of IgG1, IgG2a, and IgG3 by Assays B, C, and D, respectively.
Two groups of 4 Balb/c female mice per group are injected with both 100 μg FF1-4D5 antibody and 100 μg H∂A1 antibody. One of these groups is a stimulated control designated Group B. On day 3 and 4, the other group is injected with 40 μg (±) methyl 11α, 16-dihydroxy-1-methyl-9-oxoprosta-4Z,13E-dien-1-oate. Another group is injected with only PBS as an unstimulated control (Group A). On day -1 and 8, 50-100 μl of serum is recovered and analyzed for IgE, IgG1 and IgG2a by Assays A, B, and C, respectively.
3 groups of 4 Balb/c female mice per group are injected with both 100 μg FF1-4D5 antibody and 100 μg H∂A1 antibody on day 0. Group A is given no further treatment. On day 3 and 4, one group of mice is injected with 20 μg (±) methyl 2-[2-[3R-3α-hydroxy-2β-(4-hydroxy-4-methyl-1E-octenyl-5-oxo-1α-cyclopentyl]-methyl]cyclopropanebutanoate (Group B) and another group with 20 μg (±) methyl 2-[2-[3R-3α-hydroxy-2β-(4-hydroxy-4-methyl-1E-octenyl)-5-oxo-1α-cyclopentyl]ethyl]cyclopropanepropanoate (Group C) as in Example 13. On day -1 and 8, 50-100 μl of serum is recovered and analyzed for IgE, IgG1, IgG2a and IgG3 by Assays A, B, C and D, respectively. The selectivity of inhibition of IgE is shown in Table 12.
as §2

IgE [4] = assay: ED50 for inhibition of IgE calculated from the examples; format: in vivo, mouse; details: dose to achieve 50% inhibition of IgE
Description: From the data in the above examples, the effective dose of each prostaglandin to achieve 50% inhibition of IgE (ED50) was calculated.

[5] = Diarrheal effects in rats; details: rat, in vivo, po
Description: (§3) Briefly, adult Charles River male rats weighing 210-230 g were individually housed and fasted with water available ad libitum for 24 hours prior to the test. The animals (N=6-12) received logarithmically graded prostaglandin doses orally. Immediately after administration, the animals were returned to their cages, and diarrhea, if any, was assessed on an all or none basis for 8 hours after drug treatment. The ED50 and relative potency values were calculated by the logistic method of Berkson.

[6] = rat, in vivo
Description: as §3

[7] = day -1 baseline before treatment

## CCCCC(O)(CC)C/C=C/[C@H]1[C@H](O)CC(=O)[C@@H]1C/C=C\CCCC(=O)OC (mixture of isomers) [(±) methyl 11α,16-dihydroxy-16-ethyl-9-oxoprosta-5Z,13E-dien-1-oate]
[1]
  cell surface density and distribution: identical cell surface density and distribution as the control group
IgM; Table 6
  IgM synthesis: IgM synthesis is not affected
IgM; day 7 (PBS 1488)
  IgM ± SD: 1858 ± 107 µg/mL
IgM; day 8 (PBS 1690)
  IgM ± SD: 2569 ± 803 µg/mL
IgM; day 9 (PBS 1396)
  IgM ± SD: 2104 ± 276 µg/mL
IgM; day 11 (PBS 548)
  IgM ± SD: 725 ± 199 µg/mL
IgM; [7]
  IgM ± SD: 272 ± 19 µg/mL
IgE [2]; 20 μg IP 3x daily days 3 and 4, Table 6
  IgE production: IgE production is fully inhibited
IgE [2]; Table 6, 20 μg IP 3x daily days 3 and 4, day 7 (PBS 4545)
  IgE ± SD: 847 ± 67 ng/mL
IgE [2]; Table 6, 20 μg IP 3x daily days 3 and 4, day 8 (PBS 11398)
  IgE ± SD: 1264 ± 173 ng/mL
IgE [2]; Table 6, 20 μg IP 3x daily days 3 and 4, day 9 (PBS 7114)
  IgE ± SD: 1064 ± 106 ng/mL
IgE [2]; Table 6, 20 μg IP 3x daily days 3 and 4, day 11 (PBS 1064)
  IgE ± SD: 808 ± 16 ng/mL
IgE [2]; Table 6, 20 μg IP 3x daily days 3 and 4, day -1 baseline before treatment
  IgE ± SD: < 800 ng/mL

## CCCCC[C@H](O)/C=C/[C@H]1[C@H](O)CC(=O)[C@@H]1CCCCCCC(=O)O [prostaglandin E1, reference compound]
IgE [2]; 20 μg days 3 and 4
  inhibition of de novo IgE synthesis in vivo: lack of inhibition
IgE [2]; Table 9, 20 μg IP days 3 and 4, day 8 (control 3539)
  IgE ± SD: 2958 ± 717 ng/mL
IgE [2]; Table 9, 20 μg IP days 3 and 4, day -1 baseline before treatment
  IgE ± SD: < 800 ng/mL
IgE [2]; in vivo, summary statement
  inhibition of IgE in vivo: only low inhibition in vivo
IgE [3]
  inhibition of IgE in vitro: exhibit inhibition of IgE in vitro

## CCCCC(C)(O)C/C=C/[C@H]1[C@H](O)CC(=O)[C@@H]1CC/C=C\CCC(=O)OC (mixture of isomers) [(±) methyl 11α,16-dihydroxy-16-methyl-9-oxoprosta-4Z,13E-dien-1-oate]
IgG1
  effect on IgG1: does not effect IgG1 or IgG2a
IgG1; day 9 (control 19800)
  IgG1 ± SD: 37728 ± 6913 µg/mL
IgG1; [7]
  IgG1 ± SD: 2331 ± 2212 µg/mL
IgE [2]; 40 μg days 3 and 4
  de novo IgE synthesis: inhibits de novo IgE synthesis
IgE [2]; Table 11, 40 μg days 3 and 4, day 8 (control 15890)
  IgE ± SD: 3973 ± 905 ng/mL
IgE [2]; Table 11, 40 μg days 3 and 4, day -1 baseline before treatment
  IgE ± SD: 1717 ± 313 ng/mL
IgG2a
  effect on IgG2a: does not effect IgG1 or IgG2a
IgG2a; day 9 (control 1056)
  IgG2a ± SD: 1058 ± 202 µg/mL
IgG2a; [7]
  IgG2a ± SD: 160 ± 130 µg/mL
IgE [4]
  ED50 IgE Inhibition: 4.0 μg/mouse/TID
[5]
  TD50 at 8 h: 0.049 mg/kg

## CCCCCCC(C)(O)C/C=C/[C@H]1[C@H](O)CC(=O)[C@@H]1CCCCCCC(=O)OC (mixture of isomers) [(±) methyl-20-ethyl-11α,16-dihydroxy-16-methyl-9-oxoprost-13E-en-1-oate]
[6]
  diarrhea side effects: essentially free of detrimental diarrhea side effects
[6]; po
  diarrhea side-effect: essentially free of the undesirable diarrhea side-effect
IgE [2]; 20 μg days 3 and 4, Example 24
  de novo IgE synthesis: inhibits de novo IgE synthesis
IgE [2]; Table 13, 20 μg days 3 and 4, day 8 (control 3653)
  IgE ± SD: < 800 ng/mL
IgE [2]; summary statement
  IgE inhibition: excellent IgE inhibition
IgE [4]
  ED50 IgE Inhibition: 1.0 μg/mouse/TID
[5]
  TD50 at 8 h: 2.7 mg/kg
